What was measured:
MLLT1 YD = biological target: T1, MLLT1 YD (Homo sapiens, UniProt Q03111); assay: AlphaScreen (AS) assay, MLLT1 YEATS domain; type: binding
T1 construct: made in house; host or cells: E. coli Rosetta
T1 sequence (Q03111 1-138 limits assumed): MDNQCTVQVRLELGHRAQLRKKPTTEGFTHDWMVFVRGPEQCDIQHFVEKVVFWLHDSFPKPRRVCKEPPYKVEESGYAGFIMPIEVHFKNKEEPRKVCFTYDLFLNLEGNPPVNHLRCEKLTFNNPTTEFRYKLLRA
Protocol: II.IV Protein Expression and Purification
Human bromodomains were cloned, expressed and purified as previously described. The cloning, expression and purification of human YEATS domains are described as follows; Sequences for the wild type YEATS domains of MLLT1, MLLT3, GAS41 and YEATS2 were cloned into expression vectors (Table S1). E. coli Rosetta cells were grown in TB medium at 37°C. Overexpression was induced after five hours by addition of IPTG to a final concentration of 0.4 mM and cells were incubated at 17°C overnight. Cells were harvested by centrifugation and the cell pellet was resuspended in cold binding buffer (50 mM Tris at pH 7.5, 500 mM NaCl, 20 mM imidazole, 2 mM DTT) on a magnetic stirring plate at 4°C. The suspension was lysed using an Avestin EmulsiFlex-C5 homogeniser (1 pass without pressure, four passes with pressure between 1000-1500 bar). The lysate was clarified via centrifugation at 16,000 rpm at 4°C for 1 hour (JLA-16 rotor in Beckmann Coulter Avanti J- […]
The supernatant was loaded onto a standard NiNTA column (HisTrap
FF, 5 ml, GE Healthcare Lifesciences) on an ÄKTAxpress system (GE). After washing with binding buffer, the target protein was eluted at 300 mM imidazole. The eluted peak fractions were pooled and concentrated to 5 ml (Amicon concentrators, 10 kDa molecular weight cut off (MWCO)) and then separated via size exclusion chromatography (buffered with 20 mM Tris at pH 7.5, 500 mM NaCl, 2 mM DTT) using a GE Superdex 75 column on an […]
(NanoDrop ND-1000 Spectrophotometer) and protein identity was verified via SDS-PAGE and LC/MS. Pooled fractions were then again concentrated to at least 2 mg/ml and stored at […]
(§1) (1 picture or pasted object on this page, not shown here)

MLLT1 = biological target: T2, MLLT1 (Homo sapiens, UniProt Q03111); assay: NanoBRET assay, full length MLLT1:Histone 3.3 in HEK293 cells; type: cell-based; settings: relative to the DMSO control
T2 construct: We also developed a full length MLLT1:Histone 3.3 (H3.3) NanoBRET assay; host or cells: HEK293
T2 sequence (Q03111 whole entry): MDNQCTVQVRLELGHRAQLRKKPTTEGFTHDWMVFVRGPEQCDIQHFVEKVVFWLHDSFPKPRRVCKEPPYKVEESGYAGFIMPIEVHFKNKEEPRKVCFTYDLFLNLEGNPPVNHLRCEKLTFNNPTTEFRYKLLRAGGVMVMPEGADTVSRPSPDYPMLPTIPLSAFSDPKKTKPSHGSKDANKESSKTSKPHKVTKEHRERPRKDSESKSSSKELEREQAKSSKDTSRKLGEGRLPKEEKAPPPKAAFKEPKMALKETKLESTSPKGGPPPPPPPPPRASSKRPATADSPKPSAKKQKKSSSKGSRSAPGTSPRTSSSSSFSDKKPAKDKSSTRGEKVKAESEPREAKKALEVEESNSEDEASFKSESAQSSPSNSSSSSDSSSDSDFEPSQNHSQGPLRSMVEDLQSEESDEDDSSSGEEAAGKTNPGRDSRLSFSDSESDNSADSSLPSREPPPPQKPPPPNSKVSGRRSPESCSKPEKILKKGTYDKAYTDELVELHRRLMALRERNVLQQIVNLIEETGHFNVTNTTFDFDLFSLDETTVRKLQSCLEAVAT
Protocol: Compounds were then added directly to media (in the presence of SAHA 2.5 M) at final concentrations 0.01-30 μM or an equivalent amount of DMSO as a vehicle control, and the plates were incubated for 24 h at 37 °C in the presence

MLLT3 = biological target: T3, MLLT3 (Homo sapiens, UniProt P42568); assay: NanoBRET assay, full-length MLLT3-NanoLuc / histone H3.3-HaloTag in HEK293 cells; type: cell-based; settings: 24 h
T3 construct: in full length MLLT3 N-terminal NanoLuc, Histone; host or cells: HEK293
T3 sequence (P42568 1-568): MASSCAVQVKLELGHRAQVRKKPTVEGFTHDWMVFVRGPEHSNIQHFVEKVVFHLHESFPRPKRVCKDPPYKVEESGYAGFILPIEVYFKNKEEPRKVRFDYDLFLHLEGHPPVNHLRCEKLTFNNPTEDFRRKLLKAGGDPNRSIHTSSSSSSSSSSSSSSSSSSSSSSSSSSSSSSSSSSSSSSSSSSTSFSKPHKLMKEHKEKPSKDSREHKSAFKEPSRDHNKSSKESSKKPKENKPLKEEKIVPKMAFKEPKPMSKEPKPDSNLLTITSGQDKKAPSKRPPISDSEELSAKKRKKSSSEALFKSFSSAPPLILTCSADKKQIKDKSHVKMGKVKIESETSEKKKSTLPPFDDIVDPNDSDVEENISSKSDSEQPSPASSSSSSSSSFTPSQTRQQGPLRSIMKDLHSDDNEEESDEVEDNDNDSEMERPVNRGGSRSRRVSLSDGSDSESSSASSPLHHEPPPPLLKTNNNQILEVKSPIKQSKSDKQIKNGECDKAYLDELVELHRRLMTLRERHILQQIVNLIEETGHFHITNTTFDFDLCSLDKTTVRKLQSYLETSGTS
Protocol: II.V NanoLuciferase Bioluminescent Resonance Energy Transfer (NanoBRET) Assay[2]
HEK293 cells ([…]) were plated in each well of a 6-well plate after 6 h cells were co-transfected with Histone H3.3-HaloTag (NM_002107) and a NanoLuciferase fusion of MLLT1 or MLLT3 (WT sequences from Promega HaloTag® human ORF in pFN21A) at a 1:500 and 1:10 (NanoLuc® to HaloTag®) ratio respectively with FuGENE HD transfection regent. Sixteen hours post-transfection, cells were collected and exchanged into media containing phenol red-free DMEM and 4% FBS in the absence (control sample) or the presence (experimental sample) of 100 nM NanoBRET 618 fluorescent ligand (Promega).
Cell density was adjusted to 2 x 10^5 cells/mL and then seeded 100 µL/well in a white 96-well plate (Corning Costar #3917). Compounds were then added directly to media (in the presence of SAHA 2.5 µM) at final concentrations 0.01-30 μM or an equivalent amount of DMSO as a vehicle control, and the plates were incubated for 24 h at 37 °C in the presence […]
NanoBRET Nano-Glo substrate (Promega) was added to both control and experimental samples at a final concentration of 10 µM. Readings were performed within 5 minutes using a ClarioSTAR (BMG labtech) equipped with LP 480 and 610 nm filters. A corrected BRET ratio was calculated and is defined as the ratio of the emission at 610 nm/[…] for experimental samples minus the emission at 6 10 nm/640 nm for control samples (not incubated with NanoBRET fluorescent ligand). BRET ratios are expressed as milliBRET units (mBU), where 1 mBU corresponds to the corrected BRET ratio multiplied by 1000.
3.3 C-terminal HaloTag in HEK293 cells. Treatment with SAHA (2.5 µM) alone increases MLLT3- […]
dependent manner. Mean±SD of BRET ratio (mBU), n=4 technical replicates.
(also on this page, place not known: 5) -well H3.3 -HaloTag pFN21A ) ( NanoLuc® H aloTag®) post -transfection, red -free Nano -Glo 10 5 6 10 6 10 l igand). cells . […]

MLLT3 YD = biological target: T4, MLLT3 YD (Homo sapiens, UniProt P42568); assay: Isothermal titration calorimetry (ITC), MLLT3 YD; type: binding
T4 construct: made in house; host or cells: E. coli Rosetta
Protocol: Supplementary Table 1. AlphaScreen selectivity screen of compound 92 over other acyllysine […]
II.III Isothermal Titration Calorimetry (ITC)
Experiments were carried out on a Nano -ITC Standard Volume Instrument (TA Instruments).
All experiments were carried out at 25 °C in 20 mM HEPES pH 7.5, 150 mM NaCl, 0.5 mM TCEP and 5% glycerol. Protein soluti ons were buffer exchanged by gel filtration. The titrations were conducted using an initial injection of 2 μL followed by 32 injections of 8 μL.
Background dilution heat was subtracted from each experiment. Thermodynamic parameters […]
changes in free energy, enthalpy and entropy respectively. Independent single site binding models were employed in data analysis.
(also on this page, place not known: ac yllysine Nano-ITC -T 1/ KB. ΔH Molar&ratio&[injectant/cell] Time&[s] Corrected&Heat&Rate&[ucal/s] Experiment&1 K Experiment&2 K K)
as §1

[1] = biological target: T5, endogenous MLLT1 in MV4;11 cells (Homo sapiens, UniProt Q03111); assay: Cellular thermal shift assay (CETSA), MV4;11 cells; type: cell-based; settings: up to 10 μM
T5 construct: with endogenous MLLT1 in MV4;11 cells; endogenous in cells; host or cells: MV4;11
T5 sequence (Q03111 whole entry): as the sequence (Q03111 whole entry) above
Protocol: Supplementary Table 2. Thermal stabilisation of compound 1, 92 and Bromosporine with recombinant human bromodomain proteins. *50 µM compound concentration. †10 µM compound […]
II.VIII Cellular Thermal Shift Assay[6]
HEK293 and MV4;11 cells were cultured at 37 °C in a humidified 5% CO2 atmosphere in DMEM Medium containing 10% FBS, respectively. Cells were grown until approximately […]
DMSO final concentrati on) for 30 minutes. Cells were then collected, washed with PBS, transferred in PCR tubes, and pelleted by centrifugation (300 g, 3 min, RT.) The PBS was removed, and the cell pellets heated at the indicated temperature for 3 minutes in a PCR machine (UNO96 , VMR) and then placed on ice. Lysis buffer (50 mM Tris pH 7.5, 0.8% v/v NP-40, 5% v/v glycerol, 1.5 mM MgCl2, 100 mM NaCl, 25 mM NaF, 1mM Na3VO4, 1mM PMSF, 1mM DTT, 10 μg/mL TLCK, 1 μg/mL Leupeptin, 1 μg/mL Aprotinin, 1 μg/mL soy bean trypsin, ≥250 units/ mL Benzonase) was added and the cells lysed by 3 freeze -thaw cycles in liquid nitrogen. Aggregated proteins were removed by centrifugation (17000 g, 20 min, 4 °C) and the protein concentration of the retained soluble fraction determined. 4× sample loading buffer (Bio-Rad) containing 20% v/v DTT was added and samples were heated for 6 min at 90 °C prior to separation by SDS -PAGE. […]

MV4;11 AML cells = assay: qPCR gene expression in MV4;11 cells; type: cell-based, human; settings: 1 μM, 72 h
Protocol: II.XII Analysis of gene expression by quantitative polymerase chain reaction (qPCR) […]
MV4;11 cells were cultured at 37 °C in a humidified 5% CO2 atmosphere in RPMI medium containing 10% FBS and 1% L-glutamine. Cells were seeded at a density of 2 x 10^6 cells/well in 6 well plates pre-coated in polyhema, to enable suspension culture. Cells were […]
and washing with PBS, RNA was extracted from cells using RNeasy Mini Kit (Qiagen), following the manufacturer’s protocol. Total RNA was quantified by Nanodrop and 500 ng of RNA was converted to cDNA using GoScript Reverse Transcription System (Promega). The final cDNA products were quantified by QPCR using FAM dye-labelled Taqman primers and probe sets (see table below). Data was analysed using the comparative cycle threshold (CT) method where CT values were normalised by subtracting that from an endogenous housekeeping gene (VIC dye-labelled ACTB). The gene expression levels from compound-treated cells are presented as relative to those of DMSO treated control cells. Statistical analyses were carried out using two-way ANOVA (GraphPad Prism 7).
ACTB (Beta Actin) Endogenous Control 4326315E
Supplementary Table 4. Taqman Gene Expression Assays (Life Technologies). Taqman MGB probes have 5’ FAM reporter dye (or VIC) and 3’ non-fluorescent quencher. […]

Row | Compound | IC50 (MLLT1 YD) | also measured
1 | C[C@@H]1C[C@H](C)CN(Cc2nc3cc(NC(=O)c4ccc5c(cnn5C)c4)ccc3[nH]2)C1 [Compound 82] | 5.7 ± 2.4 µM | –
2 | O=C(CCCCCCC(=O)Nc1ccccc1)NO [SAHA, suberoylanilide hydroxamic acid, reference compound] | – | BRET activity (mBU), MLLT1:H3.3 NanoBRET (MLLT1): significant increase in BRET activity; MLLT3-Histone 3.3 interaction (mBU) (MLLT3; representative assay): increases
3 | C[C@@H]1CCCN1Cc1nc2cc(NC(=O)c3ccc4c(cnn4C)c3)ccc2[nH]1 [Compound 91] | – | Kd (MLLT3 YD): 0.54 µM; thermal stabilisation of MLLT1 (CETSA) [1]: no thermal stabilisation; IC50 (MLLT3; in the presence of 2.5 μM SAHA): 5.8 ± 0.07 µM; gene expression of MYC, MPO, DDN, CTSG, CD86 (qPCR) (MV4;11 AML cells): diminished cell activity
4 | COc1ccc(C(=O)Nc2ccc3[nH]c(CN4CCCCC4)nc3c2)cc1 [Compound 74] | 6.4 ± 0.65 µM | –
5 | O=C(Nc1ccc2[nH]c(CN3CCCCC3)nc2c1)c1ccccc1Cl [Compound 68] | > 20 µM | –
6 | Cn1ncc2cc(C(=O)Nc3ccc4[nH]c(CN5CCCCC5)nc4c3)ccc21 [Compound 79] | 1.6 ± 0.54 µM | –
7 | CC1CCN(Cc2nc3cc(NC(=O)c4ccccc4)ccc3[nH]2)CC1 [Compound 83] | > 20 µM | –
8 | COCC1CCCN1Cc1nc2cc(NC(=O)c3ccc4c(cnn4C)c3)ccc2[nH]1 (stereo not drawn) [Compound 88] | 0.97 ± 0.47 µM | –
9 | CC1CCCN1Cc1nc2cc(NC(=O)c3ccc(Cl)cc3)ccc2[nH]1 (stereo not drawn) [Compound 85] | 0.33 ± 0.11 µM | –
10 | O=C(Nc1ccc2[nH]c(CN3CCCCC3)nc2c1)c1cccc(OC(F)(F)F)c1 [Compound 70] | > 20 µM | –
11 | C[C@@H]1CCC[C@H](C)N1Cc1nc2cc(NC(=O)c3ccc(Cl)cc3)ccc2[nH]1 [Compound 80] | > 20 µM | –
12 | CCC1CCCN1Cc1nc2cc(NC(=O)c3ccc4c(cnn4C)c3)ccc2[nH]1 (stereo not drawn) [Compound 87] | 0.3 ± 0.06 µM | –
13 | O=C(Nc1ccc2[nH]c(CCN3CCCCC3)nc2c1)c1ccc(Cl)cc1 [Compound 84] | > 20 µM | –
14 | CC1CCN(Cc2nc3cc(NC(=O)c4ccc5c(cnn5C)c4)ccc3[nH]2)C1 (stereo not drawn) [Compound 90] | 0.73 ± 0.59 µM | –
15 | CC1CCN(Cc2nc3cc(NC(=O)c4ccc5c(cnn5C)c4)ccc3[nH]2)C1 (stereo not drawn) [Compound 89] | 0.6 ± 0.46 µM | –
16 | Cn1ncc2cc(C(=O)Nc3ccc4[nH]c(CN5C[C@H]6C[C@H]6C5)nc4c3)ccc21 [Compound 86] | 1.4 ± 0.86 µM | –
17 | Cc1ccc(C(=O)Nc2ccc3[nH]c(CN4CCCCC4)nc3c2)cc1C [Compound 72] | 5.5 ± 0.06 µM | –
18 | CC(c1nc2cc(NC(=O)c3ccc(Cl)cc3)ccc2[nH]1)N1CCCCC1 (stereo not drawn) [Compound 81] | > 20 µM | –
19 | O=C(Nc1ccc2[nH]c(CN3CCCCC3)nc2c1)c1ccc(-n2ccnc2)cc1 [Compound 77] | 1 ± 0.59 µM | –
20 | COc1ccccc1C(=O)Nc1ccc2[nH]c(CN3CCCCC3)nc2c1 [Compound 69] | > 20 µM | –
